Laboratory results as given in patent US20190046662A1, “Compositions and Methods for Treating Neuropathic Pain” (Rutgers, The State University of New Jersey, priority 2016, published 2019).

Tests used:
Type in all cases: in vivo, rat
hSyn-hM4D [1] = target: T1, hSyn-hM4D (Homo sapiens, UniProt P08173, A203G/Y113C); test: von Frey detection threshold, synapsin-DREADD (hSyn-hM4D) in right trigeminal ganglion, non-CCI animals; settings: n=7 per group, CNO i.p. vs vehicle
T1 construct: expressed in transfected cells; host or cells: rat trigeminal ganglion neurons in vivo, viral vector with synapsin promoter
T1 sequence (P08173 1-479 Y113C/A203G): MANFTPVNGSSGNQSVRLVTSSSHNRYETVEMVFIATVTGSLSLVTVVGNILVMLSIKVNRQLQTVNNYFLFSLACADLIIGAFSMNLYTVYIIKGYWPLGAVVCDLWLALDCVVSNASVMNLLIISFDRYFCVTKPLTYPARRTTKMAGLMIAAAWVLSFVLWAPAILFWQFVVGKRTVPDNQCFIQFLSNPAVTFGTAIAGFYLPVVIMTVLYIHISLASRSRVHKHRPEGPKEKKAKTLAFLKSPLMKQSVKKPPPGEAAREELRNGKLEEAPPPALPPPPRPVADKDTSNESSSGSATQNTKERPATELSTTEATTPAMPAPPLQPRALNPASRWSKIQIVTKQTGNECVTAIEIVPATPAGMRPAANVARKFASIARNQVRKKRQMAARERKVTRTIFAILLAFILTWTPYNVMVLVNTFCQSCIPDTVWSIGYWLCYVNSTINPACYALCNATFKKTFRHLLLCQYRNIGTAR
From the text: The effects of synapsin-DREADD activation with CNO on von Frey detection threshold were studied (FIG. 3). The von Frey assay uses von Frey fibers, which are small pieces of nylon rod of varying diameters, to test a rodent's sensitivity to a mechanical stimulus. The von Frey assay is generally considered a mechanical nociceptive threshold test. All animals (males, n=7 per group; females, n=7 per group) had synapsin-DREADD (hSyn-hM4D; synapsin promoter driven DREADD) injected into the right trigeminal ganglion. Average von Frey detection thresholds (±SEM) were plotted following intraperitoneal (i.p.) administration of CNO or vehicle.

hSyn-hM4D [2] = target: T1, hSyn-hM4D; test: Pin-prick response score, synapsin-DREADD (hSyn-hM4D) in right trigeminal ganglion, non-CCI animals; settings: n=7 per group, CNO i.p. vs vehicle
From the text: The effects of synapsin-DREADD activation with CNO on pin-prick response score were also studied (FIG. 4). The pin-prick assay is generally considered a nociceptive threshold test. All animals (males, n=7 per group; females, n=7 per group) had synapsin-DREADD (hSyn-hM4D) injected into the right trigeminal ganglion. Average pin-prick response scores (±SEM) are plotted following intraperitoneal (i.p.) administration of CNO or vehicle.

hSyn-hM4D [3] = target: T1, hSyn-hM4D; test: Face grooming after s.c. formalin into right upper lip, synapsin-DREADD (hSyn-hM4D); settings: n=7 per group, vs vehicle
Experimental: The effects of synapsin-DREADD activation with CNO on face grooming activity observed after subcutaneous (s.c.) injection of formalin into the right upper lip were also studied (FIG. 5). The mean number of seconds that rats (males, n=7 per group; females, n=7 per group) spent grooming (±SEM) is plotted for the 45 minutes post-formalin injection observation period. All animals had synapsin-DREADD (hSyn-hM4D) injected into the right trigeminal ganglion. CNO or vehicle was delivered intraperitoneally 30 minutes prior to the s.c. injection of 1.5% formalin (50 μl) into the right upper lip (ipsilateral side), just lateral to the nose.

hTac1-hM4D [4] = target: T2, hTac1-hM4D (Homo sapiens, UniProt P08173, A203G/Y113C); test: Face grooming after s.c. formalin into right upper lip, Tac1-DREADD (hTac1-hM4D); settings: females, n=7 per group, vs vehicle
T2 construct: expressed in transfected cells; host or cells: rat trigeminal ganglion neurons in vivo, viral vector with Tac1 promoter
T2 sequence (P08173 1-479 Y113C/A203G): T1 sequence (P08173 1-479 Y113C/A203G)
Experimental: The effects of Tac1-DREADD activation with CNO on face grooming activity observed after s.c. injection of formalin into the right upper lip were also studied (FIG. 9). The mean number of seconds that rats (females, n=7 per group) spent grooming (±SEM) is plotted for the 45 minutes post-formalin injection observation period. All animals had Tac1-DREADD (hTac1-hM4D) injected into the right trigeminal ganglion. CNO or vehicle was delivered i.p. 30 minutes prior to the s.c. injection of 1.5% formalin (50 μl) into the right upper lip (ipsilateral side), just lateral to the nose.

hTac1-hM4D [5] = target: T2, hTac1-hM4D; test: Pain-like behavior after IoN-CCI, Tac1-DREADD (hTac1-hM4D); settings: IoN-CCI males
From the text: For the infraorbital nerve chronic constriction injury (ION-CCI), ˜0.5 cm of the infraorbital nerve will be freed and two chromic gut ligatures will be loosely tied around it (2 mm apart) prior to closure of the incision (all performed under ketamine/xylazine anesthesia). As a control, other rats will undergo sham surgery where the infraorbital nerve is exposed but left untouched. This model results in persistent pain beginning at about 2 weeks postoperatively and lasting at least 3 weeks (Benoliel et al. (2001) Neurosci. Lett., 297:151-4; Benoliel et al. (2002) Pain 97:203-12), allowing for the assessment of the effect of vehicle vs CNO/DREADD-mediated inhibition of TG neurons on this behavior at multiple time points. Fos expression and cAMP levels may also be measured in the TG to correlate these molecular endpoints to behavioral effects of DREADD activation. The rats will also undergo repeated stimulation with a 2-g von Frey hair applied to the hairy skin of the vibrissae on the operated side to induce Fos (Vos et al. (1995) J. Comp. Neurol., 357:362-75). Activation of hM4Di receptors will reduce Fos in the TG following von Frey stimulation.
The effects of Tac1-DREADD activation with CNO on pain-like behavior following IoN-CCI were studied (FIG. 10). The mean von Frey detection thresholds (±SEM) (left) and the mean response scores (±SEM) (right) to the pin-prick stimulation applied to the vibrissal pads were plotted. All animals (males, n=7 per group) were exposed to the infraorbital nerve chronic constriction injury (IoN-CCI) unilaterally. Following IoN-CCI, all animals had tachykinin 1-DREADD (hTac1-hM4D) injected into the ipsilateral trigeminal ganglion. At post-operative day 26 (D26) CNO or vehicle was delivered intraperitoneally 30 minutes prior to behavioral testing.

[6] = Tac1-DREADD study (sentence prints hSyn-hM4D), CNO i.p. at D26

## C[N+]1([O-])CCN(C2=Nc3cc(Cl)ccc3Nc3ccccc32)CC1 [CNO, clozapine N-oxide]
hSyn-hM4D [1]; females, D28, 30 min after CNO, F=1.2, P=0.3
  von Frey detection threshold, ipsilateral vibrissal pad: no significant effect
hSyn-hM4D [1]; females, F=2.8, P=0.1
  von Frey detection threshold, contralateral vibrissal pad: no significant effect
hSyn-hM4D [1]; males, F=1.2, P=0.3
  von Frey detection threshold, contralateral vibrissal pad: no significant effect
hSyn-hM4D [1]; males, F=3.3, P=0.1
  von Frey detection threshold, ipsilateral vibrissal pad: no significant effect
hSyn-hM4D [2]; females, F=0.1, P=0.7
  pin-prick response score, contralateral side: no significant effect
hSyn-hM4D [2]; females, F=0.1, P=0.8
  pin-prick response score, ipsilateral side: no significant effect
hSyn-hM4D [2]; males, F=1.3, P=0.3
  pin-prick response score, contralateral (left) vibrissal pad: No significant effect
hSyn-hM4D [2]; males, F=9.8, P=0.01
  pin-prick response score, ipsilateral (right) vibrissal pad: significantly reduced
hSyn-hM4D [3]; females, CNO i.p. 30 min prior to formalin, F=5.5, P=0.02
  total face grooming time, tonic phase (12-45 minutes post formalin injection): significantly reduced
hSyn-hM4D [3]; males, CNO i.p. 30 min prior to 1.5% formalin (50 μl) s.c., F=27.1, P<0.0001
  total face grooming time, tonic phase (12-45 minutes post formalin injection): significantly reduced
hSyn-hM4D [3]; males, CNO i.p. 30 min prior to formalin, F=4.5, P=0.04
  total face grooming time, acute phase (0-6 minutes post formalin injection): significant reduction
hTac1-hM4D [4]; CNO i.p. 30 min prior to 1.5% formalin (50 μl) s.c., F=0.07, P=0.8
  total face grooming time, acute phase (0-6 minutes post formalin injection): no significant effect
hTac1-hM4D [4]; CNO i.p. 30 min prior to formalin, F=1.6, P=0.2
  total face grooming time, tonic phase (12-45 minutes post formalin injection): no significant effect
hTac1-hM4D [5]; n=7 per group, hTac1-hM4D, CNO i.p. at D26, 30 min prior to testing, F=6.3, P=0.03
  von Frey detection threshold, ipsilateral side, compared to vehicle treated animals: significantly increased
hTac1-hM4D [5]; n=7 per group, hTac1-hM4D, CNO i.p. at D26, F=8.6, P=0.01
  pin-prick response score, ipsilateral vibrissal pad, compared to vehicle treated animals: significantly decreased
hTac1-hM4D [5]; [6]
  pin-prick response score, contralateral side: No significant effects
  von Frey detection threshold, contralateral side: No significant effects
hTac1-hM4D [5]; hTac1-hM4D, CNO i.p. at D26, D21 F=18.9, P=0.0003, D27 F=16.9, P=0.0006
  pin-prick response score, ipsilateral side, compared to post-operative days 21 and 27: significantly decreased
hTac1-hM4D [5]; hTac1-hM4D, CNO i.p. at D26, D21 F=31.4, P<0.0001, D27 F=9.8, P=0.006
  von Frey detection threshold, ipsilateral side, compared to post-operative days 21 and 27: significantly increased
